Values joined by “and” are separate entries in the source; they are usually repeats but may differ in a detail not shown here. Identical values can stand only once.
Test system: hAAT
Test: Serum hAAT protein levels in PiZ mice (ELISA)
Format: in vivo, human (expressed in PiZ mice)
Details: for Normalized serum hAAT levels / Serum hAAT normalized to Day 1 and control / Serum hAAT normalized to day 1: PiZ mice; for Normalized serum hAAT levels: normalized to day 1 and saline control; for Serum hAAT normalized to Day 1 and control: single IV 4 mg/kg + 8 mg/kg MLP delivery polymer; for Serum hAAT normalized to day 1: single IV 6 mg/kg with 6 mg/kg MLP delivery polymer; for Serum hAAT normalized to day 1 and controls: female PiZ mice, single IV 8 mg/kg + 8 mg/kg MLP delivery polymer
Protocol: Human AAT protein levels in serum were monitored for 29 days. At the indicated times, blood samples were collected and assayed for hAAT by ELISA. Day 1 samples were collected prior to trigger administration. For mRNA analysis, 3-4 mice were euthanized at each of days 3, 8, 15, 22, and 29. For euthanized mice, cardiac stick were performed for serum isolation for AAT ELISA (200 μl serum). Half of the left lateral liver lobe was collected and snap-freeze in liquid nitrogen for RNA isolation. The remainder of the left lobes were embedded into paraffin blocks for PAS-D staining with hematoxylin as counter-stain. Serum hAAT levels in mice given AAT Duplex Pair SEQ ID NO: 5/6 were 95% reduced on day 8 and remained reduced to day 29, at which time they were 79% reduced. Mice given AAT Duplex Pair SEQ ID NO: 5/6 were euthanized at either day 3, 8, 15, 22 or 29. Mice given saline or Luciferase siRNA control (SEQ ID 7/8) were euthanized on day 29. Levels of hAAT mRNA in the livers were measured by RT-qPCR. The hAAT mRNA in mice given AAT Duplex Pair SEQ ID NO: 5/6 was reduced by 97% on day 3 and remained reduced on day 29, at which time levels were 56% reduced. The size of the globules and the area of the liver covered by globules was digitally quantitated from liver specimens stained with PAS-D. Duplex Pair SEQ ID NO: 5/6 treated mice had 70% smaller globules at day 15 and 62% smaller globules at day 29. The area of the liver covered with globules was 83% reduced on day 15 and 72% reduced on day 29 (FIG. 5).

Substance: Duplex Pair SEQ ID NO: 5/6: double-stranded AAT RNAi agent: modified antisense strand SEQ ID NO: 5 annealed to Chol-TEG sense strand SEQ ID NO: 6 (antisense TGGAACUUGGUGAUGAUAUTT; sense UAUAUAUCAUCACCAAGUUCCAT; Chol-TEG on sense strand; chemical modifications; antisense strand of dsRNA; modified_base 7 /mod_base = “2′-3′ seco corresponding nucleotide”; modified_base 2,4,6,8,10,12,14,16,18 /mod_base = “2′-deoxy-2′-fluoro corresponding nucleoside”; modified_base 3,5,9,11,13,15,17,19 /mod_base = “2′-O-methyl corresponding nucleoside”; modified_base 21 /mod_base = “5′-phosphorothioate corresponding nucleotide”; sense strand of dsRNA; modified_base 2 /mod_base = “2′-hydroxy corresponding nucleoside”; modified_base 4,6,8,10,12,14,16,18,20,22 /mod_base = “2′-deoxy-2′-fluoro corresponding nucleoside”; …)
- Normalized serum hAAT levels (single IV 4 mg/kg + 4 mg/kg MLP, day 1): 1.00
- Normalized serum hAAT levels (single IV 4 mg/kg + 4 mg/kg MLP, day 8): 0.03 ± 0.01
- Normalized serum hAAT levels (single IV 4 mg/kg + 4 mg/kg MLP, day 15): 0.23 ± 0.04
- Normalized serum hAAT levels (single IV 4 mg/kg + 4 mg/kg MLP, day 20): 0.32 ± 0.05
- Normalized serum hAAT levels (single IV 4 mg/kg + 4 mg/kg MLP, day 29): 0.66 ± 0.10
- Normalized serum hAAT levels (single IV 4 mg/kg + 4 mg/kg MLP, day 36): 0.83 ± 0.06
- Normalized serum hAAT levels (single IV 4 mg/kg + 4 mg/kg MLP, day −7): 0.68 ± 0.07
- Serum hAAT normalized to Day 1 and control (Day 1): 1.00
- Serum hAAT normalized to Day 1 and control (Day 3): 0.20 ± 0.04
- Serum hAAT normalized to Day 1 and control (Day 8): 0.05 ± 0.01
- Serum hAAT normalized to Day 1 and control (Day 15): 0.09 ± 0.01
- Serum hAAT normalized to Day 1 and control (Day 22): 0.28 ± 0.05
- Serum hAAT normalized to Day 1 and control (Day 29): 0.35 ± 0.05
- Serum hAAT normalized to Day 1 and control (Day 35): 0.81 ± 0.12
- Serum hAAT normalized to Day 1 and control (Day −3): 0.73 ± 0.13
- Serum hAAT normalized to day 1 (day 1 (reference)): 1.00
- Serum hAAT normalized to day 1 (day 3, listed as AAT RNAi agent (SEQ ID NO: 5/6), 6 mg/kg): 0.326 ± 0.021 and 0.274 ± 0.072
- Serum hAAT normalized to day 1 (day 10): 0.105 ± 0.033
- Normalized serum hAAT levels (single IV 8 mg/kg + 2 mg/kg MLP, day 1): 1.00
- Normalized serum hAAT levels (single IV 8 mg/kg + 2 mg/kg MLP, day 8): 0.09 ± 0.05
- Normalized serum hAAT levels (single IV 8 mg/kg + 2 mg/kg MLP, day 15): 0.59 ± 0.16
- Normalized serum hAAT levels (single IV 8 mg/kg + 2 mg/kg MLP, day 20): 0.74 ± 0.10
- Normalized serum hAAT levels (single IV 8 mg/kg + 2 mg/kg MLP, day 29): 0.87 ± 0.20
- Normalized serum hAAT levels (single IV 8 mg/kg + 2 mg/kg MLP, day 36): 0.74 ± 0.08
- Normalized serum hAAT levels (single IV 8 mg/kg + 2 mg/kg MLP, day −7): 0.70 ± 0.15
- Normalized serum hAAT levels (single IV 8 mg/kg + 4 mg/kg MLP, day 1): 1.00
- Normalized serum hAAT levels (single IV 8 mg/kg + 4 mg/kg MLP, day 8): 0.04 ± 0.02
- Normalized serum hAAT levels (single IV 8 mg/kg + 4 mg/kg MLP, day 15): 0.27 ± 0.05
- Normalized serum hAAT levels (single IV 8 mg/kg + 4 mg/kg MLP, day 20): 0.35 ± 0.05
- Normalized serum hAAT levels (single IV 8 mg/kg + 4 mg/kg MLP, day 29): 0.80 ± 0.20
- Normalized serum hAAT levels (single IV 8 mg/kg + 4 mg/kg MLP, day 36): 1.00 ± 0.20
- Normalized serum hAAT levels (single IV 8 mg/kg + 4 mg/kg MLP, day −7): 0.70 ± 0.24
- Normalized serum hAAT levels (single IV 8 mg/kg + 8 mg/kg MLP, day 1): 1.00
- Normalized serum hAAT levels (single IV 8 mg/kg + 8 mg/kg MLP, day 8): 0.02 ± 0.00
- Normalized serum hAAT levels (single IV 8 mg/kg + 8 mg/kg MLP, day 15): 0.13 ± 0.06
- Normalized serum hAAT levels (single IV 8 mg/kg + 8 mg/kg MLP, day 20): 0.16 ± 0.04
- Normalized serum hAAT levels (single IV 8 mg/kg + 8 mg/kg MLP, day 29): 0.43 ± 0.08
- Normalized serum hAAT levels (single IV 8 mg/kg + 8 mg/kg MLP, day 36): 0.78 ± 0.23
- Normalized serum hAAT levels (single IV 8 mg/kg + 8 mg/kg MLP, day −7): 0.89 ± 0.54
- Serum hAAT normalized to day 1 and controls (mice euthanized Day 3, Day 1): 1.000
- Serum hAAT normalized to day 1 and controls (mice euthanized Day 3, Day 3): 0.255 ± 0.040
- Serum hAAT normalized to day 1 and controls (mice euthanized Day 3, Day −2): 1.068 ± 0.070
- Serum hAAT normalized to day 1 and controls (mice euthanized Day 8, Day 1): 1.000
- Serum hAAT normalized to day 1 and controls (mice euthanized Day 8, Day 3): 0.184 ± 0.025
- Serum hAAT normalized to day 1 and controls (mice euthanized Day 8, Day 8): 0.054 ± 0.004
- Serum hAAT normalized to day 1 and controls (mice euthanized Day 8, Day −2): 0.895 ± 0.129
- Serum hAAT normalized to day 1 and controls (mice euthanized Day 15, Day 1): 1.000
- Serum hAAT normalized to day 1 and controls (mice euthanized Day 15, Day 3): 0.243 ± 0.060
- Serum hAAT normalized to day 1 and controls (mice euthanized Day 15, Day 8): 0.066 ± 0.023
- Serum hAAT normalized to day 1 and controls (mice euthanized Day 15, Day 15): 0.095 ± 0.063
- Serum hAAT normalized to day 1 and controls (mice euthanized Day 15, Day −2): 0.66 ± 0.121
- Serum hAAT normalized to day 1 and controls (mice euthanized Day 22, Day 1): 1.000
- Serum hAAT normalized to day 1 and controls (mice euthanized Day 22, Day 3): 0.202 ± 0.054
- Serum hAAT normalized to day 1 and controls (mice euthanized Day 22, Day 8): 0.044 ± 0.010
- Serum hAAT normalized to day 1 and controls (mice euthanized Day 22, Day 15): 0.056 ± 0.011
- Serum hAAT normalized to day 1 and controls (mice euthanized Day 22, Day 22): 0.100 ± 0.039
- Serum hAAT normalized to day 1 and controls (mice euthanized Day 22, Day −2): 0.779 ± 0.280
- Serum hAAT normalized to day 1 and controls (mice euthanized Day 29, Day 1): 1.000
- Serum hAAT normalized to day 1 and controls (mice euthanized Day 29, Day 3): 0.238 ± 0.062
- Serum hAAT normalized to day 1 and controls (mice euthanized Day 29, Day 8): 0.052 ± 0.015
- Serum hAAT normalized to day 1 and controls (mice euthanized Day 29, Day 15): 0.057 ± 0.016
- Serum hAAT normalized to day 1 and controls (mice euthanized Day 29, Day 22): 0.103 ± 0.032
- Serum hAAT normalized to day 1 and controls (mice euthanized Day 29, Day 29): 0.209 ± 0.071
- Serum hAAT normalized to day 1 and controls (mice euthanized Day 29, Day −2): 0.653 ± 0.102

Source: patent US20190071670A1, “Methods Of Treatment For Alpha-1 Antitrypsin Deficiency” (Arrowhead Pharmaceuticals, Inc., priority 2016, published 2019)
